The target in one assay is T1, 5HT2C receptors (Homo sapiens, UniProt P28335).
T1 sequence (P28335 33-458): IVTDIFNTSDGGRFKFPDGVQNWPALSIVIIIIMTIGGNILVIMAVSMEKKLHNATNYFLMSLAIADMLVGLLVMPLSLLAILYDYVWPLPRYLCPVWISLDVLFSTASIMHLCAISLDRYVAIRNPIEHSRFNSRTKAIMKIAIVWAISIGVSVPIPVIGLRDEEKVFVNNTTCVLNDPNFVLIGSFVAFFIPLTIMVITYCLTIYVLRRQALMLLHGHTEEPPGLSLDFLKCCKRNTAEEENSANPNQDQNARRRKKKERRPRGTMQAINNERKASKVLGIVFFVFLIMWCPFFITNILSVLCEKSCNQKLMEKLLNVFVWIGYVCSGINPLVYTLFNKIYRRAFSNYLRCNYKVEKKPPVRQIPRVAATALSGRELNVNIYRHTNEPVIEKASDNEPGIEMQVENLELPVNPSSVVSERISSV
The assay is described as follows: Human 5-HT2C functional high throughput screening assay in CHO-K1 cells (calcium flux). It is filed as cell-based. Also on record: expressed in transfected cells; host or cells: CHO-K1 cells. Conditions: for Emax: CHO-K1, 5-HT2C, maximum functional response as percentage relative to the effect of serotonin; for EC50: CHO-K1 cells, calcium flux; call rule not given here. Put shortly:
(§1)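 CHO-K1 cells overexpressing human 5-HT2C or 5-HT2B were serum-starved overnight and loaded with Ca4 dye plus 2.5 mM probenecid for 60 min at RT. Calcium flux was read on FLIPR (ex 480/em 530 nm, 25° C) over 3 min after addition of compound, tested from 10 μM in 1:10 steps over 6 points with 0.2% DMSO. EC50 and Emax relative to serotonin came from a 4-parameter logistic fit.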
(A change in cytosolic calcium serves as a functional read-out for many receptors and channels.)

In another assay the target is T2, 5HT2B receptors (Homo sapiens, UniProt P41595).
T2 construct: expressed in transfected cells; host or cells: CHO-K1 cells
The assay is described as follows: Human 5-HT2B functional high throughput screening assay in CHO-K1 cells (calcium flux). It is filed as cell-based. Conditions: for EC50: CHO-K1 cells, calcium flux. Put shortly:
as §1

Where [1] appears, read: 5-HT2B, maximum functional response as percentage relative to the effect of serotonin.
Setting [2] is: 5-HT2B agonist activity, read-out: EC50.
The mark [3] stands for this setting: 5-HT2C agonist activity, read-out: EC50.
Setting [4] is: CHO-K1, 5-HT2B, maximum functional response as percentage relative to the effect of serotonin, read-out: Emax.

The structures appear in SMILES notation. Like-named read-outs stand apart in the source and are kept apart here. Some results are limits rather than exact numbers.

The term Emax denotes the greatest response seen or fitted, relative to the assay's reference. By EC50 is commonly meant the concentration that produces a half-maximal response.

T2 sequence (P41595 whole entry): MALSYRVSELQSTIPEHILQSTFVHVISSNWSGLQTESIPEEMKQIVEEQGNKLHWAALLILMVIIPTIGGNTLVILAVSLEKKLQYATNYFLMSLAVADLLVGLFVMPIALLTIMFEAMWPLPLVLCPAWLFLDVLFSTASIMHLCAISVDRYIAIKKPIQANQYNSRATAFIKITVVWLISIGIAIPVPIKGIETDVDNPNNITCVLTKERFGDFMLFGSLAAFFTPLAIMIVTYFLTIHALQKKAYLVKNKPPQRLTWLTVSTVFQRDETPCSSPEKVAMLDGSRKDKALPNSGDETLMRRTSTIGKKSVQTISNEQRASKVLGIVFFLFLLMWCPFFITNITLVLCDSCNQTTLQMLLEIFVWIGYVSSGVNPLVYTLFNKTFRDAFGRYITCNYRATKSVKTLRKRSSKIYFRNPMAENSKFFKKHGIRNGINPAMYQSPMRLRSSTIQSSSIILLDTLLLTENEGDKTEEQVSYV

For `O=C1NC[C@@H]2CNC[C@H]2c2ccc(OCc3ccccc3F)cc21` (relative stereo) [Example 147, Trans-8-(2-fluorobenzyloxy)-1,2,3,3a,4,5-hexahydrobenzo[e]pyrrolo[3,4-c]azepin-6(10bH)-one], the Emax was greater than 120% on 5HT2C receptors and “inactive” on 5HT2B receptors (setting [1]). For the same compound, the concentration for a half-maximal effect (EC50) on 5HT2B receptors (EC50, 5-HT2B agonist activity) was greater than 10 µM.

For the compound `CN1C[C@H]2CNC(=O)c3cc(-c4cccc(S(C)(=O)=O)c4)ccc3[C@@H]2C1` [Example 229, (3aR,10bR)-2-Methyl-8-(3-(methylsulfonyl)phenyl)-1,2,3,3a,4,5-hexahydrobenzo[c]pyrrolo[3,4-e]azepin-6(10bH)-one], the Emax was 90% on 5HT2C receptors (read-out: Emax) and “inactive” at 5HT2B receptors (setting [1]). The EC50 at 5HT2B receptors (setting [2]) is greater than 10 µM.

In the case of `Cc1ccc(-c2ccc3c(c2)C(=O)NC[C@@H]2CN(C)C[C@@H]32)cc1` (relative stereo) [Example 82, Trans-2-methyl-8-p-tolyl-1,2,3,3a,4,5-hexahydrobenzo[e]pyrrolo[3,4-c]azepin-6(10bH)-one], the EC50 on 5HT2C receptors (setting [3]) is 0.0042 µM; on 5HT2B receptors (setting [2]), greater than 10 µM. For the same compound, the Emax at 5HT2C receptors (read-out: Emax) was greater than 120%; on 5HT2B receptors (setting [1]), “inactive”.

As for `FC(F)(F)Oc1cccc2c1OCC[C@H]1CNC[C@H]21` (relative stereo) [Example 285, Trans-7-(trifluoromethoxy)-2,3,3a,4,5,10b-hexahydro-1H-[1]benzoxepino[4,5-c]pyrrole], the Emax on 5HT2C receptors worked out at 100%; on 5HT2B receptors (CHO-K1) it was 90%. Moreover, the EC50 was less than 0.0001 µM at 5HT2C receptors (EC50, 5-HT2C agonist activity) and 0.009 µM on 5HT2B receptors (EC50, 5-HT2B agonist activity).

Turning to `CN1C[C@@H]2CNC(=O)c3cc(OCc4ccccc4)ccc3[C@H]2C1` [Example 274, (3aS,10bS)-8-(Benzyloxy)-2-methyl-1,2,3,3a,4,5-hexahydrobenzo[e]pyrrolo[3,4-c]azepin-6(10bH)-one], the maximal effect (Emax) at 5HT2C receptors is greater than 120%; at 5HT2B receptors (setting [1]), “inactive”. Moreover, the EC50 was 0.003 µM on 5HT2C receptors (EC50, 5-HT2C agonist activity) and greater than 10 µM at 5HT2B receptors (EC50, 5-HT2B agonist activity).

For `COc1ccccc1-c1ccc2c(c1)C(=O)NC[C@@H]1CN(C)C[C@@H]21` (relative stereo) [Example 137, Trans-8-(2-methoxyphenyl)-2-methyl-1,2,3,3a,4,5-hexahydrobenzo[e]pyrrolo[3,4-c]azepin-6(10bH)-one], the EC50 on 5HT2C receptors (setting [3]) was 0.1 µM; on 5HT2B receptors (setting [2]), greater than 10 µM. Further, the Emax was greater than 120% at 5HT2C receptors (read-out: Emax) and “inactive” on 5HT2B receptors (setting [1]).

As for `O=C1NC[C@@H]2CNC[C@H]2c2ccc(OCc3ccccc3C(F)(F)F)cc21` (relative stereo) [Example 148, Trans-8-(2-(trifluoromethyl)benzyloxy)-1,2,3,3a,4,5-hexahydrobenzo[e]pyrrolo[3,4-c]azepin-6(10bH)-one], the half-maximal effective concentration (EC50) at 5HT2C receptors (setting [3]) was 0.0009 µM; at 5HT2B receptors (setting [2]), greater than 10 µM. Further, the Emax was greater than 120% on 5HT2C receptors (read-out: Emax) and “inactive” at 5HT2B receptors (setting [1]).

In the case of `O=S(=O)(c1ccccc1)N1Cc2cccnc2[C@@H]2CNC[C@H]2C1` (relative stereo) [Example 338, Trans-6-(phenylsulfonyl)-5,6,7,7a,8,9,10,10a-octahydropyrido[3,2-c]pyrrolo[3,4-e]azepine], the maximal response (Emax) on 5HT2C receptors amounted to 80%; at 5HT2B receptors (CHO-K1), 20%. Further, the concentration for a half-maximal effect (EC50) at 5HT2C receptors (EC50, 5-HT2C agonist activity) was 0.1 µM; on 5HT2B receptors (EC50, 5-HT2B agonist activity), 0.8 µM.

As to `c1ccc(-c2ccc3c(c2)[C@H]2CNC[C@@H]2CCO3)cc1` (relative stereo) [Example 215, Trans-9-phenyl-2,3,3a,4,5,10b-hexahydro-1H-[1]benzoxepino[4,5-c]pyrrole], the EC50 stood at 0.6 µM at 5HT2C receptors (setting [3]) and 5 µM at 5HT2B receptors (setting [2]). Moreover, the Emax at 5HT2C receptors (read-out: Emax) was greater than 120%; at 5HT2B receptors (setting [4]) it was 15%.

Consider `CC(C)c1cccc(-c2ccc3c(c2)C(=O)NC[C@@H]2CNC[C@@H]32)c1` (relative stereo) [Example 378, Trans-8-(3-isopropylphenyl)-2,3,3a,4,5,10b-hexahydropyrrolo[3,4-d][2]benzazepin-6(1H)-one], for which the results for the EC50 on 5HT2C receptors (setting [3]) and on 5HT2B receptors (setting [2]) were 0.0004 µM and greater than 10 µM, respectively. For the same compound, the Emax was 105% at 5HT2C receptors (read-out: Emax) and “inactive” at 5HT2B receptors (setting [1]).

For `COc1ncc(-c2ccc3c(c2)C(=O)NC[C@@H]2CNC[C@@H]32)cn1` (relative stereo) [Example 178, Trans-8-(2-methoxypyrimidin-5-yl)-1,2,3,3a,4,5-hexahydrobenzo[e]pyrrolo[3,4-c]azepin-6(10bH)-one], the figures for the Emax at 5HT2C receptors and on 5HT2B receptors (setting [1]) were greater than 120% and “inactive”, respectively. For the same compound, the EC50 is 0.07 µM on 5HT2C receptors (EC50, 5-HT2C agonist activity) and greater than 10 µM at 5HT2B receptors (EC50, 5-HT2B agonist activity).

On to `COc1cc(F)ccc1-c1ccc2c(c1)C(=O)NC[C@H]1CN(C)C[C@H]21` [Example 326, (3aS,10bS)-8-(4-Fluoro-2-methoxyphenyl)-2-methyl-2,3,3a,4,5,10b-hexahydropyrrolo[3,4-d][2]benzazepin-6(1H)-one], for which the values for the EC50 on 5HT2C receptors (setting [3]) and on 5HT2B receptors (setting [2]) were 0.009 µM and greater than 10 µM, respectively. The maximal response (Emax) at 5HT2C receptors (read-out: Emax) is 85%; at 5HT2B receptors (setting [1]), “inactive”.

Turning to `COc1cc(OC)c2c(c1)C(=O)NC[C@@H]1CN(Cc3ccccc3)C[C@@H]21` (relative stereo) [Example 98, Trans-2-benzyl-8,10-dimethoxy-1,2,3,3a,4,5-hexahydrobenzo[c]pyrrolo[3,4-e]azepin-6(10bH)-one], the results for the half-maximal effective concentration (EC50) at 5HT2C receptors (setting [3]) and at 5HT2B receptors (setting [2]) were 0.01 µM and greater than 10 µM, respectively. The maximal effect (Emax) on 5HT2C receptors (read-out: Emax) is greater than 120%; on 5HT2B receptors (setting [1]), “inactive”.

As for `CC(O)c1cc(-c2ccc3c(c2)C(=O)NC[C@H]2CN(C)C[C@H]32)ccc1F` (mixture of isomers) [Example 307, (3aS,10bS)-8-[4-Fluoro-3-(1-hydroxyethyl)phenyl]-2-methyl-2,3,3a,4,5,10b-hexahydropyrrolo[3,4-d][2]benzazepin-6(1H)-one], the EC50 was 0.0007 µM on 5HT2C receptors (setting [3]) and greater than 10 µM on 5HT2B receptors (setting [2]). For the same compound, the maximal effect (Emax) on 5HT2C receptors (read-out: Emax) was 100%; on 5HT2B receptors (setting [1]), “inactive”.

Turning to `CC(O)c1cccc(-c2ccc3c(c2)C(=O)N(C)C[C@@H]2CN(C)C[C@@H]32)c1` (relative stereo) [Example 193, Trans-8-(3-(1-hydroxyethyl)phenyl)-2,5-dimethyl-1,2,3,3a,4,5-hexahydrobenzo[e]pyrrolo[3,4-c]azepin-6(10bH)-one], the figures for the EC50 on 5HT2C receptors (setting [3]) and on 5HT2B receptors (setting [2]) were 0.02 µM and greater than 10 µM, respectively. The Emax at 5HT2C receptors (read-out: Emax) was greater than 120%; at 5HT2B receptors (setting [1]), “inactive”.

With `COc1ccc(S(=O)(=O)N2Cc3cccnc3[C@@H]3CNC[C@H]3C2)cc1` (relative stereo) [Example 346, Trans-6-[(4-methoxyphenyl)sulfonyl]-5,6,7,7a,8,9,10,10a-octahydropyrido[3,2-c]pyrrolo[3,4-e]azepine], the EC50 at 5HT2C receptors (setting [3]) was 0.1 µM; at 5HT2B receptors (setting [2]), greater than 10 µM. Besides, the Emax at 5HT2C receptors (read-out: Emax) is 85%; at 5HT2B receptors (setting [1]), “inactive”.

With `O=S(=O)(c1cccc(OC(F)(F)F)c1)N1Cc2cccnc2[C@@H]2CNC[C@H]2C1` (relative stereo) [Example 366, Trans-6-{[3-(trifluoromethoxy)phenyl]sulfonyl}-5,6,7,7a,8,9,10,10a-octahydropyrido[3,2-c]pyrrolo[3,4-e]azepine], the concentration giving a half-maximal response (EC50) stood at 0.1 µM on 5HT2C receptors (setting [3]) and 0.2 µM at 5HT2B receptors (setting [2]). Besides, the Emax at 5HT2C receptors (read-out: Emax) and on 5HT2B receptors (setting [4]) was 85% each time.

As for `CN1C[C@@H]2CNC(=O)c3cc(-c4ccc5c(c4)C(=O)CC5)ccc3[C@H]2C1` [Example 306, (3aS,10bS)-2-Methyl-8-(3-oxo-2,3-dihydro-1H-inden-5-yl)-2,3,3a,4,5,10b-hexahydropyrrolo[3,4-d][2]benzazepin-6(1H)-one], the EC50 was 0.01 µM on 5HT2C receptors (setting [3]) and greater than 10 µM at 5HT2B receptors (setting [2]). The values for the maximal response (Emax) on 5HT2C receptors (read-out: Emax) and at 5HT2B receptors (setting [1]) were 90% and “inactive”, respectively.

Take `c1cnc2c(c1)[C@@H]1CNC[C@H]1CCO2` (relative stereo) [Example 264, Trans-2,3,3a,4,5,10b-hexahydro-1H-pyrrolo[3′,4′:4,5]oxepino[2,3-b]pyridine]: the EC50 at 5HT2C receptors (setting [3]) was 1 µM; on 5HT2B receptors (setting [2]), 3 µM. The values for the Emax on 5HT2C receptors and at 5HT2B receptors (CHO-K1) were greater than 120% and 20%, respectively.

Turning to `CN1C[C@@H]2CNC(=O)c3cc(OCc4ccc(F)cc4)ccc3[C@H]2C1` [Example 211, (3aS,10bS)-8-(4-Fluorobenzyloxy)-2-methyl-1,2,3,3a,4,5-hexahydrobenzo[e]pyrrolo[3,4-c]azepin-6(10bH)-one], the results for the EC50 on 5HT2C receptors (setting [3]) and on 5HT2B receptors (setting [2]) were 0.002 µM and greater than 10 µM, respectively. Moreover, the maximal effect (Emax) is greater than 120% on 5HT2C receptors (read-out: Emax) and “inactive” at 5HT2B receptors (setting [1]).

The values are drawn from patent US8846951B2 (AbbVie Inc., priority 2009, dated 2014).
